Source: patent publication US20160175241A1, “COMPOSITION FOR SKIN ANTI-AGEING TREATMENT” (POLICHEM SA, priority 2013, published 2016)

Legend:
[1] = system: Reactive oxygen species (ROS) measured on keratinocytes after exposure to Ultraviolet light A (UVA); experiment: ROS formation in keratinocytes after UVA exposure (DCA fluorescence); assay type: cell-based; conditions: Homo sapiens, Keratinocyte, light or radiation study, 0.15 mg/ml (positive control)
Description: To the test the different antioxidant activity of the composition according to the Example 1 versus the Comparative Compositions 2-5 of the Example 2, they were tested at different concentrations (0.500-0.016 mg/ml) on Reactive oxygen species (ROS) measured on keratinocytes after exposure to Ultraviolet light A (UVA), with and without the tested sample, evaluating the cell viability after UVA stress by Neutral red uptake (NRU) test: cell survival assay using cultured human keratinocytes in monolayer cultures with and without the tested sample.
Human primary keratinocytes come from paediatric foreskins, with ethic committee's permission, from pre-planned routine surgery. The epidermis was separated from dermis by incubation with […] and trypsinized to generate single cell suspension.
Keratinocytes were cultivated in Dulbecco's modified Eagle's and Ham's F12 media (3:1) enriched with 10% foetal calf serum (v/v) and specific enrichments.
These cells multiply in culture until a cell monolayer is reached. […] Once a confluence of 60-70% has been reached, fresh medium is added with scalar dilutions of the tested sample. Non-treated cells are used as negative controls. At this stage the cell cultures were treated with different dilutions of the test compound and of the controls to obtain final concentrations ranging from 0.5 to 0.016 mg/ml. For each dilution, three replicate tests were performed. The product was dissolved in the culture medium. […] The cell vitality is determined after UVA exposure and without UV exposure.
After having exposed the cells to the tested sample, the cell culture medium is removed and the cells are washed in PBS. […] DCA is reacting with free radicals in the medium, originating a fluorescent derivative, and the fluorimeter reading allows obtaining a quantitative data related to the ROS content in the cells.
After suitable incubation, the DCA solution has been discharged and the cells have then been exposed for different times to UVA irradiation and soon after read in the fluorimeter, as described (Toxicol. Letters 1997-93:47-54).

[2] = system: skin structure and firmness; conditions: two concentrations, 0.1% and 1%; cited from earlier work

Row | SMILES | inhibition at 150 µg/mL ([1]; 4′ UVA (1 J/cm2)) | inhibition at 150 µg/mL ([1]; 8′ UVA (2 J/cm2)) | inhibition at 150 µg/mL ([1]; 12′ UVA (3 J/cm2)) | improving skin structure and firmness [2]
1 | O=C1O[C@H]([C@@H](O)CO)C(O)=C1O [Vitamin C] | 19.6% | 13.4% | 14.8% | 
2 | COc1cc(O)c(CC=C(C)C)c(O)c1C(=O)/C=C/c1ccc(O)cc1 [xanthohumol] |  |  |  | resulted efficacious
